Columns and labels:
[1] = target: Serine/threonine-protein kinase PAK 3 (Homo sapiens) (UniProt O75914); conditions: Compound concentration 1000.0 nM
[2] = target: T1, Alpha-1B adrenergic receptor (Homo sapiens) (UniProt P35368); experiment: Alpha1B (h) Eurofins-Cerep binding assay; design: ligand concentration 0.15 nM; conditions: filed as antagonist, Compound concentration 10.0 uM
T1 sequence (whole entry): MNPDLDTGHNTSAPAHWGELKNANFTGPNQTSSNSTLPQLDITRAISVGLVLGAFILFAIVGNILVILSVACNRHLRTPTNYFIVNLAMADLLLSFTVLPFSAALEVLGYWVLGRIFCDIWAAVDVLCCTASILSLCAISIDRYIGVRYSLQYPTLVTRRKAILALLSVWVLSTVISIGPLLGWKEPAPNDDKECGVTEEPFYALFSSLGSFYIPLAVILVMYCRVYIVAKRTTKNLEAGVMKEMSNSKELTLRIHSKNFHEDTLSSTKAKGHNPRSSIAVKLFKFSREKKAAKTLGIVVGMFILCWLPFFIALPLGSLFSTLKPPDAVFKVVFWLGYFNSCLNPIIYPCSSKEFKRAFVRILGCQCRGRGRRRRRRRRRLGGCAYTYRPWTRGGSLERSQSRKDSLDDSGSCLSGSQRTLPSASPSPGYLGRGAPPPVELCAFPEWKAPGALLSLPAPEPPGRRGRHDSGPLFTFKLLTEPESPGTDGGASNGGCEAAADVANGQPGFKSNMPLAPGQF

[3] = target: Interferon-induced, double-stranded RNA-activated protein kinase (Homo sapiens) (UniProt P19525); conditions: Compound concentration 1000.0 nM
[4] = test system: Epidermal growth factor receptor (Homo sapiens), P00533 [G719C]; conditions: Compound concentration 1000.0 nM
[5] = target: Prostaglandin E2 receptor EP2 subtype (Homo sapiens) (UniProt P43116); experiment: EP2 (h) Eurofins-Cerep binding assay; design: ligand concentration 3 nM; conditions: filed as agonist, Compound concentration 10.0 uM
[6] = test system: Epidermal growth factor receptor (Homo sapiens), P00533 [G719S]; conditions: Compound concentration 1000.0 nM
[7] = target: Ribosomal protein S6 kinase alpha-4 (Homo sapiens) (UniProt O75676); conditions: Compound concentration 1000.0 nM
[8] = target: High affinity nerve growth factor receptor (Homo sapiens) (UniProt P04629); conditions: Compound concentration 1000.0 nM
[9] = target: Serine/threonine-protein kinase 35 (Homo sapiens) (UniProt Q8TDR2); conditions: Compound concentration 1000.0 nM
[10] = target: Melatonin receptor type 1B (Homo sapiens) (UniProt P49286); experiment: MT2 (ML1B) (h) Eurofins-Cerep binding assay; design: ligand concentration 0.05 nM; conditions: filed as agonist, Compound concentration 10.0 uM
[11] = target: Serine/threonine-protein kinase tousled-like 1 (Homo sapiens) (UniProt Q9UKI8); conditions: Compound concentration 1000.0 nM
[12] = target: MAP kinase-activated protein kinase 5 (Homo sapiens) (UniProt Q8IW41); conditions: Compound concentration 1000.0 nM
[13] = test system: Fibroblast growth factor receptor 3 (Homo sapiens), P22607 [G697C]; conditions: Compound concentration 1000.0 nM
Sequence of Fibroblast growth factor receptor 3 (Homo sapiens), P22607 [G697C] (P22607 whole entry G697C, canonical isoform): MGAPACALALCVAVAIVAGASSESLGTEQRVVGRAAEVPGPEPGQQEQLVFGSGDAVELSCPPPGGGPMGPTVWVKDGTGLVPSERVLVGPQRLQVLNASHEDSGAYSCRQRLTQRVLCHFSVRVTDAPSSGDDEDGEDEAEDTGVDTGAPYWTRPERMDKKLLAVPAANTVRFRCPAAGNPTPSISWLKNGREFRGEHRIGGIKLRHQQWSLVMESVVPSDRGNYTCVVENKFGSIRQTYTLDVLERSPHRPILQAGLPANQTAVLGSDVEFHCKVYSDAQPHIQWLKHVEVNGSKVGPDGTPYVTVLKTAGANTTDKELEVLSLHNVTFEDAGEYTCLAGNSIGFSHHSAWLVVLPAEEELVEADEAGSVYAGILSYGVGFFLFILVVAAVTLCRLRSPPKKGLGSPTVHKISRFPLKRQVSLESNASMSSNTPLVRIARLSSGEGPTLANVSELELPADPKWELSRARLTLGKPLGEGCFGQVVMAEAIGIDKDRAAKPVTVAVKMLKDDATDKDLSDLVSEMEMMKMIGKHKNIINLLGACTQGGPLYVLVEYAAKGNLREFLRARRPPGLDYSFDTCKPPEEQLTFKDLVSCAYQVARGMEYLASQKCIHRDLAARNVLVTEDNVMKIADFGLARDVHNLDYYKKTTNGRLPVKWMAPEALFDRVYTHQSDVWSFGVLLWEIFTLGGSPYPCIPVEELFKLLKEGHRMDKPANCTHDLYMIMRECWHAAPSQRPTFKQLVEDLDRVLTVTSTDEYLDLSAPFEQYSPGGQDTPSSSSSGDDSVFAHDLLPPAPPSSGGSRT

[14] = target: Casein kinase I isoform gamma-2 (Homo sapiens) (UniProt P78368); conditions: Compound concentration 1000.0 nM
[15] = target: Serine/threonine-protein kinase Nek9 (Homo sapiens) (UniProt Q8TD19); conditions: Compound concentration 1000.0 nM
[16] = test system: Receptor-type tyrosine-protein kinase FLT3 (Homo sapiens), P36888 [K663Q]; conditions: Compound concentration 1000.0 nM
[17] = target: Sigma intracellular receptor 2 (Homo sapiens, UniProt Q5BJF2); experiment: GPCRScan assay: inhibition of Sigma 2; design: radioligand conc. used [nm] 5.0, parental cells HEKT
Sequence of Sigma intracellular receptor 2 (Q5BJF2 whole entry): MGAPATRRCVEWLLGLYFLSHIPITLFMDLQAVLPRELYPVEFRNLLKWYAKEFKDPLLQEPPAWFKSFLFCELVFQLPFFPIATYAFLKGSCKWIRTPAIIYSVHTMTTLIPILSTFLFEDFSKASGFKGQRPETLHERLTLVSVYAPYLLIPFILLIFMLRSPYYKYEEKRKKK

[18] = target: Tyrosine-protein kinase TXK (Homo sapiens) (UniProt P42681); conditions: Compound concentration 1000.0 nM
[19] = target: Mitogen-activated protein kinase 1 (Homo sapiens) (UniProt P28482); conditions: Compound concentration 1000.0 nM
[20] = test system: Epidermal growth factor receptor (Homo sapiens), P00533 [L858R]; conditions: Compound concentration 1000.0 nM
[21] = target: Histamine H4 receptor (Homo sapiens) (UniProt Q9H3N8); conditions: Compound concentration 10.0 uM
[22] = target: Proto-oncogene tyrosine-protein kinase Src (Homo sapiens) (UniProt P12931); conditions: Compound concentration 1000.0 nM
[23] = target: cAMP-dependent protein kinase catalytic subunit beta (Homo sapiens) (UniProt P22694); conditions: Compound concentration 1000.0 nM
[24] = target: Tyrosine-protein kinase JAK1 (Homo sapiens) (UniProt P23458); conditions: Compound concentration 1000.0 nM
Sequence of Tyrosine-protein kinase JAK1 (Homo sapiens) (P23458 whole entry, canonical isoform): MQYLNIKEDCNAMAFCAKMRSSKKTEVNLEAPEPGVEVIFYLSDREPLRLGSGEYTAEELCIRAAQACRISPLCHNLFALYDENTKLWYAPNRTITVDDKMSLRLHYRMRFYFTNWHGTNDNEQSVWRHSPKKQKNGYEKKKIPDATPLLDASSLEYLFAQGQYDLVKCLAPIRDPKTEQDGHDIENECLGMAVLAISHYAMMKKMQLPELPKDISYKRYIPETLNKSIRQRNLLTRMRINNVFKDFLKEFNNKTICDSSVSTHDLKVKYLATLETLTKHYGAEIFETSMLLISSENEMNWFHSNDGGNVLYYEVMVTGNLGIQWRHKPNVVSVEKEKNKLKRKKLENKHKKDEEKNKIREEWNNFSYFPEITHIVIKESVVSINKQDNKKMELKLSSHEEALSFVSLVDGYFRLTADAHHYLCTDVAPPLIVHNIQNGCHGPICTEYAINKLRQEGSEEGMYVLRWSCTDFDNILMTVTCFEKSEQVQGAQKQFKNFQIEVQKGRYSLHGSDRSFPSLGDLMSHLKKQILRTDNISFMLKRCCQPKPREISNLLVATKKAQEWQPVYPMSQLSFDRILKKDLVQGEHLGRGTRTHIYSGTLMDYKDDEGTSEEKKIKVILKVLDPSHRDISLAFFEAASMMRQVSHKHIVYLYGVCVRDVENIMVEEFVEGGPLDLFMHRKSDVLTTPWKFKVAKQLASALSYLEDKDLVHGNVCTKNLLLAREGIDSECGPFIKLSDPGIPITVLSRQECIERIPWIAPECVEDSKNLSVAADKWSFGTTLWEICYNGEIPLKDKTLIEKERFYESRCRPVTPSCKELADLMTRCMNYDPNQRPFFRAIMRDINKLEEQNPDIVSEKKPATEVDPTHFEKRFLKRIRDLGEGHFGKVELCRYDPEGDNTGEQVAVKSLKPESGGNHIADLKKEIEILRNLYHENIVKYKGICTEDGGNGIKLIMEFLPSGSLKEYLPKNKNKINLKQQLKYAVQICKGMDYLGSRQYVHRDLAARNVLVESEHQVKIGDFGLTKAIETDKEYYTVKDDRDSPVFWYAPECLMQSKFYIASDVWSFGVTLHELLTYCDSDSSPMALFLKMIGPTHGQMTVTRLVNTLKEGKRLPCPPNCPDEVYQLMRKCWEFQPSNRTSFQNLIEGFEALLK

[25] = target: Casein kinase I isoform alpha-like (Homo sapiens) (UniProt Q8N752); conditions: Compound concentration 1000.0 nM
Sequence of Casein kinase I isoform alpha-like (Homo sapiens) (Q8N752 whole entry, canonical isoform): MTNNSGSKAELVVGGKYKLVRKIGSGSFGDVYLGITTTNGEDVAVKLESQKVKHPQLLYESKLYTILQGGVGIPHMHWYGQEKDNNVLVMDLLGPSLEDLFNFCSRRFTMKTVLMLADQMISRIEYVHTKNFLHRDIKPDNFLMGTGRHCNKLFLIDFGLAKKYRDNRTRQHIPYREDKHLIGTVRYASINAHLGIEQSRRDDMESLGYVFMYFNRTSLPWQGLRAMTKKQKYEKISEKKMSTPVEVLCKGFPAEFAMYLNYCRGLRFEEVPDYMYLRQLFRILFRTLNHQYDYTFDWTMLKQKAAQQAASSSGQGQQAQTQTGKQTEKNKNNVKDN

[26] = target: Dual specificity mitogen-activated protein kinase kinase 5 (Homo sapiens) (UniProt Q13163); conditions: Compound concentration 1000.0 nM
[27] = target: Ephrin type-A receptor 8 (Homo sapiens) (UniProt P29322); conditions: Compound concentration 1000.0 nM
[28] = target: Inhibitor of nuclear factor kappa-B kinase subunit epsilon (Homo sapiens) (UniProt Q14164); conditions: Compound concentration 1000.0 nM
[29] = target: Serine/threonine-protein kinase PLK2 (Homo sapiens) (UniProt Q9NYY3); conditions: Compound concentration 1000.0 nM
[30] = target: Cyclin-dependent kinase 8 (Homo sapiens) (UniProt P49336); conditions: Compound concentration 1000.0 nM
[31] = target: Phosphatidylinositol 4-phosphate 5-kinase type-1 alpha (Homo sapiens) (UniProt Q99755); conditions: Compound concentration 1000.0 nM
[32] = target: Cyclin-dependent kinase-like 5 (Homo sapiens) (UniProt O76039); conditions: Compound concentration 1000.0 nM
[33] = target: cGMP-inhibited 3',5'-cyclic phosphodiesterase 3A (Homo sapiens) (UniProt Q14432); experiment: PDE3A (h) Eurofins-Cerep enzyme and uptake assay; conditions: Compound concentration 10.0 uM
[34] = test system: Tyrosine-protein kinase ABL1 (Homo sapiens), P00519 [E255K]; conditions: Compound concentration 1000.0 nM
Sequence of Tyrosine-protein kinase ABL1 (Homo sapiens), P00519 [E255K] (P00519 whole entry E255K): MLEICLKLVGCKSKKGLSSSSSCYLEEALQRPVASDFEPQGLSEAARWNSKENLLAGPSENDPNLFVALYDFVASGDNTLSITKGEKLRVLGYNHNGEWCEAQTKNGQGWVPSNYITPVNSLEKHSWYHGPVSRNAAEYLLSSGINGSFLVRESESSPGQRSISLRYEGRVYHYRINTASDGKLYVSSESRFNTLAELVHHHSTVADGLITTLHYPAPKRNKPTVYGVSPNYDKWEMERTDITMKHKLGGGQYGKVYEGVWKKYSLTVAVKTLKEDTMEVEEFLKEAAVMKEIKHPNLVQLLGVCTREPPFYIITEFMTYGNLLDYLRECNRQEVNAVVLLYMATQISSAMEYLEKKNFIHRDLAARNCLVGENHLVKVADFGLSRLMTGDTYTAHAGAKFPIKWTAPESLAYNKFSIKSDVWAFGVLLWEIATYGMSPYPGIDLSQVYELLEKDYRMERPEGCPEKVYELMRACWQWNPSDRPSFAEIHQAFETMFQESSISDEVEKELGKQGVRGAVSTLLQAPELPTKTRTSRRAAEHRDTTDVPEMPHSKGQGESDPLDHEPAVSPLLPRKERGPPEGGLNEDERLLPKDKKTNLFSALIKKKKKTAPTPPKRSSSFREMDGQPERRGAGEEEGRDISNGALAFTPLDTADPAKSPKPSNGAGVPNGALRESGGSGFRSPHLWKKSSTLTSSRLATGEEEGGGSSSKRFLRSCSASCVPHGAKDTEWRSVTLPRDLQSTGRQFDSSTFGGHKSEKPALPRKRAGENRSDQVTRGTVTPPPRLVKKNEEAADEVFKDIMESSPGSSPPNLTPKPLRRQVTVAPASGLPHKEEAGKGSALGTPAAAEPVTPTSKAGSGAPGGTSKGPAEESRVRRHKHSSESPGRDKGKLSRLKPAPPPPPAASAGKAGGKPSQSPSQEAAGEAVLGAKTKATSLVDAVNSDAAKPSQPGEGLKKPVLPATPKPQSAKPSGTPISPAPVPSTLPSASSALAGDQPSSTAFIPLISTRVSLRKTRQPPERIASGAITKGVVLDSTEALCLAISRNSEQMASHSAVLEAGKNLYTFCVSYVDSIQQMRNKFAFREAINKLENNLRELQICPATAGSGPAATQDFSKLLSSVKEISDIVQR

[35] = target: 5-hydroxytryptamine receptor 4 (Homo sapiens) (UniProt Q13639); experiment: 5-HT4 e (h) Eurofins-Cerep binding assay; design: ligand concentration 0.3 nM; conditions: filed as antagonist, Compound concentration 10.0 uM
[36] = target: Tyrosine-protein kinase ZAP-70 (Homo sapiens) (UniProt P43403); conditions: Compound concentration 1000.0 nM
[37] = target: Vascular endothelial growth factor receptor 3 (Homo sapiens) (UniProt P35916); conditions: Compound concentration 1000.0 nM
Sequence of Vascular endothelial growth factor receptor 3 (Homo sapiens) (P35916 whole entry): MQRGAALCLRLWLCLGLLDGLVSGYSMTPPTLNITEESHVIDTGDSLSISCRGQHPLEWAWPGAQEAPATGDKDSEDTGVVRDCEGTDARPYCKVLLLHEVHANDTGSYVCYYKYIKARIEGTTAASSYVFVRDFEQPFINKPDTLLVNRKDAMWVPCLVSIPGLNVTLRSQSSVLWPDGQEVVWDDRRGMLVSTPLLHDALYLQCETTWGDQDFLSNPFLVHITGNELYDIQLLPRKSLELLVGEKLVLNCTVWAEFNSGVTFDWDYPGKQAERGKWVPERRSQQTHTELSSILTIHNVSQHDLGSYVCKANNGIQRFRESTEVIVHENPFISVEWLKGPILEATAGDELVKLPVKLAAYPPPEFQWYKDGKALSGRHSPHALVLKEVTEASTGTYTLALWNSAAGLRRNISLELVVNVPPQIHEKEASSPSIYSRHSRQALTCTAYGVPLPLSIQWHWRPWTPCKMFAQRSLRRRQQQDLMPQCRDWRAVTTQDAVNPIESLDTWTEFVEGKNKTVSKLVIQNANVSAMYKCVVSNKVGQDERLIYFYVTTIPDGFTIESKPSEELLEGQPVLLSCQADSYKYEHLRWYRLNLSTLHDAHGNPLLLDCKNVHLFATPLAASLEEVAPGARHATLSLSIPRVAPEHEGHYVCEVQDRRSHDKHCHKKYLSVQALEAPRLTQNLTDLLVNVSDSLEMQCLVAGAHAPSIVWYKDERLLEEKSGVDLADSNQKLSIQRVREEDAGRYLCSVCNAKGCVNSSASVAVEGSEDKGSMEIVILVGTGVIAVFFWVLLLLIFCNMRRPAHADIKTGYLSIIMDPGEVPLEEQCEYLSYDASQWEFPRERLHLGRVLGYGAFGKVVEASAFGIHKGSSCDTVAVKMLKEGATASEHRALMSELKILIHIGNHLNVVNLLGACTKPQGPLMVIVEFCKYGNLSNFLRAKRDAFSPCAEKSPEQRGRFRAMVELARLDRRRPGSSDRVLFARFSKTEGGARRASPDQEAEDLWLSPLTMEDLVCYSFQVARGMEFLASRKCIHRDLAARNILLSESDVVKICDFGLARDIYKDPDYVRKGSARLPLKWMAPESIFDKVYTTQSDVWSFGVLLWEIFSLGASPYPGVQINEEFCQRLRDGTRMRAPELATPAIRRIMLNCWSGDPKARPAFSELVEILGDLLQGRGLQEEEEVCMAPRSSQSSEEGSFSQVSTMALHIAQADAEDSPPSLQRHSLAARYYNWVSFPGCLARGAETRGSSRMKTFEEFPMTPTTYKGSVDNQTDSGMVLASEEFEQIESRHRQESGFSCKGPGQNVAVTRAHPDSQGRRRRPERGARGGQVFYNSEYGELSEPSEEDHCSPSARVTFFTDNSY

[38] = target: Receptor-interacting serine/threonine-protein kinase 4 (Homo sapiens) (UniProt P57078); conditions: Compound concentration 1000.0 nM

Row | Compound | residual activity [1] [%] | % Inhibition of Control Specific Binding (Mean n=2) [2] [%] | residual activity [3] [%] | residual activity [4] [%] | % Inhibition of Control Specific Binding (Mean n=2) [5] [%] | residual activity [6] [%] | residual activity [7] [%] | residual activity [8] [%] | residual activity [9] [%] | % Inhibition of Control Specific Binding (Mean n=2) [10] [%] | residual activity [11] [%] | residual activity [12] [%] | residual activity [13] [%] | residual activity [14] [%] | residual activity [15] [%] | residual activity [16] [%] | Ki [17] [µM] | residual activity [18] [%] | residual activity [19] [%] | residual activity [20] [%] | further results
1 | O=C(NS(=O)(=O)c1ccc(NCC2CCOCC2)c([N+](=O)[O-])c1)c1ccc(N2CCN(Cc3ccc(C(F)(F)F)cc3-c3ccc(Cl)cc3)CC2)cc1Oc1cnc2[nH]ccc2c1 [A-1210227] | 77 | 13.5 | 94 | 83 | 24 | 76 | 89 | 100 | 95 | 10.2 | 100 | 81 | 100 | 100 | 100 | 100 | 8.37 | 94 | 87 | 90 | inhibition [21]: -2.4%; residual activity [22]: 76%; residual activity [23]: 91%; residual activity [24]: 100%; residual activity [25]: 100%; residual activity [26]: 75%; residual activity [27]: 84%; residual activity [28]: 65%; residual activity [29]: 100%; residual activity [30]: 100%; residual activity [31]: 93%; residual activity [32]: 74%; % Inhibition of Control Values (Mean n=2) [33]: 6%; residual activity [34]: 91%; % Inhibition of Control Specific Binding (Mean n=2) [35]: -2%; residual activity [36]: 82%; residual activity [37]: 100%; residual activity [38]: 75%
2 | CO[C@H]1CC[C@H](CNc2ccc(S(=O)(=O)NC(=O)c3ccc(N4CCN(CC5=C(c6ccc(Cl)cc6)CC(C)(C)CC5)CC4)cc3Oc3cnc4[nH]ccc4c3)cc2[N+](=O)[O-])CC1 [A-1211212] | 64 | 15.4 | 90 | 67 | 17.3 | 65 | 90 | 100 | 93 | 32 | 82 | 82 | 100 | 80 | 95 | 91 | 1.49 | 100 | 84 | 60 | inhibition [21]: 4.94%; residual activity [22]: 78%; residual activity [23]: 88%; residual activity [24]: 100%; residual activity [25]: 85%; residual activity [26]: 66%; residual activity [27]: 84%; residual activity [28]: 100%; residual activity [29]: 100%; residual activity [30]: 91%; residual activity [31]: 86%; residual activity [32]: 74%; % Inhibition of Control Values (Mean n=2) [33]: 4.9%; residual activity [34]: 74%; % Inhibition of Control Specific Binding (Mean n=2) [35]: -1%; residual activity [36]: 97%; residual activity [37]: 89%; residual activity [38]: 65%

From ChEMBL document CHEMBL4507310, “Data for DCP probe A-1211212” (2021)
